# From US11478527B2, “FGF receptor ligands for treating diabetes and obesity” (Albert Einstein College of Medicine, priority 2015, dated 2022)
# Assays:
# 8 month old outbred mice = assay: Oral glucose tolerance test after intraparenchymal injection of peptide into the mediobasal hypothalamus; assay type: in vivo
# Procedure: A peptide of 13 amino acids ([…]) (SEQ ID NO:4) was synthesized based on the conserved sequences between the FGF8 and FGF17 b splice isoforms and the helical nature of this region of FGF8 based on a published crystal structure. This peptide was injected intraparenchymally into the mediobasal hypothalamus of 8 month old outbred mice. Having been fasted overnight, the mice were subjected to an oral glucose tolerance test (2 mg/g of glucose) using a crossover design to obtain a control condition. […] With aCSF, the median area under the curve for the 3 hour GTT was 43,747 mg-min/dL whereas it was […] with F8b13. Blood glucose concentrations were not different before the glucose load. These FGF derived peptide antagonists are useful as therapeutic agents in diabetes and obesity conditions.
# AGRP/NPY neurons = assay: Colocalization of phospho-ERK1/2 with Npy-GFP in ARC after intraperitoneal FGF19; assay type: in vivo; settings: 24 h fasted Npy-hrGFP ob/ob mice
# Procedure: FIG. 2A-2E. ERK1/2 signaling involved in FGF19-glucose metabolism regulation.
# The neuronal population targeted by FGF19 was investigated. 24 h fasted Npy-hrGFP transgenic mice deficient in leptin (Npy-hrGFP ob/ob), in which AGRP/NPY neurons in ARC appear GFP+, were injected intraperitoneally with FGF19 and the colocalization between phospho-ERK1/2 and Npy-GFP was analyzed in ARC. […] Overall, the data support that central FGF19 improved glucose metabolism required activation of ERK1/2 signaling and that AGRP/NPY neurons are a likely mediator of FGF19 action.
# [1] = test system: hypothalamic AGRP/NPY neurons; settings: cited from earlier work
# HFD-fed mice [2] = settings: FGF19 injected centrally and peripherally; previously shown (3); cited from earlier work
# POMC neurons = assay: Colocalization of phospho-ERK1/2 with Pomc-eGFP in ARC after intraperitoneal FGF19; assay type: in vivo; settings: 24 h fasted Pomc-eGFP ob/ob mice
# HFD-fed mice [3] = settings: U0126 thirty minutes before FGF19 injection
# Procedure: ERK1/2 signaling involved in FGF19-glucose metabolism regulation. […] Mice were treated twice with FGF19 (starting 16 hours after fasting and 6.5 hours apart) and tissues were collected 90 minutes after the last ip injection (2C) Analysis of co-localization between Npy-hrGFP positive neurons (lighter gray) and p-ERK1/2 positive cells (darker gray) in 24 h fasted ob/ob Npy-hrGFP mice following intraperitoneal injections of FGF19. (2D) Quantification of Npy-hrGFP positive neurons that colocalize with pERK1/2 staining in ARC (Bregma −1.7 to −1.9 mm) of ob/ob Npy-hrGFP mice (10 sections from 3 mice were examined in each group). (2E) Representative sections showing absence of co-localization between Pomc-eGFP positive neurons (lighter gray) and p-ERK1/2 positive cells (darker gray) in 24 h fasted ob/ob Pomc-eGFP mice following intraperitoneal injections of FGF19. *P<0.05, ***P<0.005.
# It was assessed whether increased ERK1/2 activation could mediate the glucose lowering effect of FGF19.
compound,measurement,setting,value
PNFTQHVREQSLV (peptide fragment based on human sequence) [F8b13],glucose tolerance compared to the same mice after aCSF,"8 month old outbred mice; oral GTT 2 mg/g glucose, overnight fast, crossover design",improved glucose tolerance
same,median area under the curve for the 3 hour GTT,"8 month old outbred mice; oral GTT 2 mg/g glucose, overnight fast, crossover vs aCSF, intraparenchymal injection into mediobasal hypothalamus",33500 mg·min/dL
same,blood glucose concentrations before the glucose load,"8 month old outbred mice; overnight fasted, vs aCSF",not different
FGF19: endocrine fibroblast growth factor,colocalization of FGF19-induced pERK1/2 staining with NPY-GFP+ neurons in ARC,AGRP/NPY neurons,colocalized with NPY-GFP+ neurons
same,induction of AGRP and NPY mRNA,[1]; mice fasted overnight,prevented the induction of AGRP and NPY mRNA
same,ERK1/2 activation in hypothalamic AGRP/NPY neurons,"[1]; mouse, in vivo",activated ERK1/2
same,FOS in hypothalamic AGRP/NPY neurons,"[1]; mouse, in vivo",FOS was reduced
same,effects on POMC neurons,"[1]; mouse, in vivo",no effects
same,glucose handling in obese mice (ob/ob) and high fat fed mice,HFD-fed mice [2],could improve glucose handling
same,colocalization of Pomc-eGFP positive neurons with pERK1/2 staining in ARC,POMC neurons,do not colocalize
N#CC(=C(/N)Sc1ccccc1N)/C(C#N)=C(\N)Sc1ccccc1N [U0126],effect of U0126 pre-treatment on the glucose lowering effect of FGF19,HFD-fed mice [3],blocked the glucose lowering effect of FGF19
